Reference: PMC5706701, “Development of a homogenous high-throughput assay for inositol hexakisphosphate kinase 1 activity” (PLoS ONE, 2017)
Structures can show the parent of a compound that is named as a salt. Where two headings read alike, the source gives them in different places. Where a SMILES comes first, the peptide text is derived from it. The star is where a group is joined. Cbz = O=C(OCc1ccccc1)*

Molecular target: T1, Human IP6K1 (Homo sapiens, UniProt Q92551)
T1 construct: GST (N, cleaved yes); made in house; host or cells: C43 E. coli, pGEX-6P-2
Test: IP6K1 high-throughput screen of the Sigma LOPAC (ADP-Glo Max, single point);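 further: final compound concentration 10µM in 5% DMSO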
Format: biochemical

[1] = LOPAC single-point screen, ADP-Glo Max luminescence raw signal per well
[2] = LOPAC single-point screen, Z-score relative to plate average and StDev
[3] = LOPAC single-point screen, Z-score from plate average and StDev
[4] = Sigma LOPAC single-point screen, ADP-Glo Max raw signal per well
[5] = Sigma LOPAC single-point screen, Z-score from plate average and StDev
[6] = LOPAC single-point screen, ADP-Glo Max raw signal per well
[7] = LOPAC single-point screen, Z-score from raw signal with plate average and StDev
[8] = LOPAC single-point screen, Z-score against plate average and StDev

T1 sequence (Q92551 whole entry): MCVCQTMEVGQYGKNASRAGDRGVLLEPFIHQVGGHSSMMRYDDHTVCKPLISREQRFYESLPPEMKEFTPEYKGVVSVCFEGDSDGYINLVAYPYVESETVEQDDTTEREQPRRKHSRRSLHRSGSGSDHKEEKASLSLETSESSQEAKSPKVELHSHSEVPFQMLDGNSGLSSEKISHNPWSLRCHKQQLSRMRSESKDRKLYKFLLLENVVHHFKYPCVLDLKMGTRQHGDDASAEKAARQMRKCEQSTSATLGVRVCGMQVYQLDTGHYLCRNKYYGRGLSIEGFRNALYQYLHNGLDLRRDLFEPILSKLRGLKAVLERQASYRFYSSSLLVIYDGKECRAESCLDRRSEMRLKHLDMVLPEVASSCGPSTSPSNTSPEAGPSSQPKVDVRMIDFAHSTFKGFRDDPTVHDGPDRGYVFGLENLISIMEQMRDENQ

With `COCC(=O)O[C@]1(CCN(C)CCCc2nc3ccccc3[nH]2)CCc2cc(F)ccc2[C@@H]1C(C)C` [Mibefradil dihydrochloride] the “Raw Signal” value [1] was 48952 and the Z-score [2] was -0.9143.

`CC(C)[C@H](NC(=O)OCc1ccccc1)C(=O)N[C@H](C=O)Cc1ccccc1` [MDL 28170] (Cbz-Val-Phe-aldehyde) was tested, and the “Raw Signal” value [1] was 65838 and the Z-score [3] was 1.923.

With `CNc1ncnc2c1ncn2[C@@H]1O[C@H](CO)[C@@H](O)[C@H]1O` [N6-Methyladenosine] the “Raw Signal” value [1] was 48943 and the Z-score [2] was -0.9158.

For `CCN(CC)CCNC(=O)c1cc(S(C)(=O)=O)ccc1OC` [Tiapride hydrochloride], the “Raw Signal” value [4] was 58277 and the Z-score [5] was 0.4378.

For `Cc1ccc(N(CC2=NCCN2)c2cccc(O)c2)cc1` [Phentolamine mesylate], the “Raw Signal” value [6] was 54426 and the Z-score [7] was -0.3104.

`CC(NCCc1ccc(O)cc1)C(O)c1ccc(O)cc1` (stereo not drawn) [Ritodrine hydrochloride] was tested, and the “Raw Signal” value [4] was 59316 and the Z-score [5] was 0.6396.

In the case of `Cl.O=C(OC1CCN(CCCl)CC1)C(c1ccccc1)c1ccccc1`, the “Raw Signal” value [6] is reported as 54369 and the Z-score [7] is reported as -0.1621.

With `Cl.Cl.NCCNS(=O)(=O)c1cccc2cnccc12` [H-9 dihydrochloride] the “Raw Signal” value [4] was 64375 and the Z-score [5] was 1.138.

In the case of `O=c1c(-c2ccc(O)cc2)coc2cc(O)cc(O)c12` [Genistein], the “Raw Signal” value [6] is reported as 53223 and the Z-score [7] is reported as -0.3948.

In the case of `CN(C(=O)Cc1ccc(Cl)c(Cl)c1)C(CN1CCCC1)c1cccc(OCC(=O)O)c1.Cl` (stereo not drawn) [ICI 204,448 hydrochloride], the “Raw Signal” value [6] is reported as 53600 and the Z-score [7] is reported as -0.1333.

In the case of `C[C@](N)(Cc1ccc(O)cc1)C(=O)O` [L-alpha-Methyl-p-tyrosine], the “Raw Signal” value [6] is reported as 53929 and the Z-score [8] is reported as -0.07805.

In the case of `C[C@@H]1O[C@@H]1P(=O)(O)O` [Phosphomycin disodium], the “Raw Signal” value [1] is reported as 62776 and the Z-score [3] is reported as 1.408.

For `N[C@H](CCC(=O)NCS(=O)(=O)O)C(=O)O` [gamma-D-Glutamylaminomethylsulfonic acid], the “Raw Signal” value [4] was 58321 and the Z-score [5] was 0.6405.

For `OC[C@H]1NC[C@@H](O)[C@@H]1O` [1,4-Dideoxy-1,4-imino-D-arabinitol], the “Raw Signal” value [6] was 54688 and the Z-score [7] was -0.09729.

With `CC(=N)NCCCC[C@H](N)C(=O)O.Cl` [L-N6-(1-Iminoethyl)lysine hydrochloride] the “Raw Signal” value [6] was 52153 and the Z-score [7] was -0.3765.

With `CCN(CC)c1ncnc2c1ncn2[C@@H]1O[C@H](COP(=O)([O-])OP(=O)([O-])C(Br)(Br)P(=O)([O-])O)[C@@H](O)[C@H]1O.[Na+].[Na+].[Na+]` [ARL 67156 trisodium salt] the “Raw Signal” value [1] was 54051 and the Z-score [2] was -0.6802.

`Nc1nc(O)c2ncn(COC(CO)CO)c2n1` [Ganciclovir] was tested, and the “Raw Signal” value [4] was 57228 and the Z-score [5] was 0.4186.

For `CCn1ccnc1CC1COc2ccccc2O1` (stereo not drawn) [Imiloxan hydrochloride], the “Raw Signal” value [6] was 52626 and the Z-score [7] was -0.297.

`Nc1nc(N)c2nc(-c3ccccc3)c(N)nc2n1` [Triamterene] was tested, and the “Raw Signal” value [1] was 65476 and the Z-score [3] was 1.836.

For `CN(C)CCC(c1ccc(Br)cc1)c1ccccn1.O=C(O)/C=C\C(=O)O` (racemic) [(±)-Brompheniramine maleate], the “Raw Signal” value [6] was 59748 and the Z-score [8] was 0.3232.

For `C[C@H](CS)C(=O)N1CCC[C@H]1C(=O)O` [Captopril], the “Raw Signal” value [6] was 58254 and the Z-score [8] was 0.06004.

With `O=C(CCCN1CCC(O)(c2cccc(C(F)(F)F)c2)CC1)c1ccc(F)cc1` [Trifluperidol hydrochloride] the “Raw Signal” value [6] was 56876 and the Z-score [8] was 0.1656.

In the case of `C[Se]C[C@H](N)C(=O)O.Cl` [Se-(methyl)selenocysteine hydrochloride], the “Raw Signal” value [6] is reported as 55528 and the Z-score [8] is reported as 0.1906.

In the case of `Cc1cn([C@H]2C=C[C@@H](CO)O2)c(=O)[nH]c1=O` [2 ,3 -didehydro-3 -deoxythymidine], the “Raw Signal” value [6] is reported as 54462 and the Z-score [7] is reported as -0.1432.

`CNCC(O)c1ccc(O)c(O)c1.Cl` (racemic) [(±)-Epinephrine hydrochloride] was tested, and the “Raw Signal” value was 49297 and the Z-score was -1.192.

`CC(C)NCC(O)COc1cccc2ccccc12.Cl` (racemic) [(±)-Propranolol hydrochloride] was tested, and the “Raw Signal” value [6] was 53827 and the Z-score [7] was -0.09519.

With `CC(C)(Oc1ccc(C2CC2(Cl)Cl)cc1)C(=O)O` (stereo not drawn) [Ciprofibrate] the “Raw Signal” value [4] was 63809 and the Z-score [5] was 1.038.

In the case of `CCCCCCCCCC(=O)N[C@H](CN1CCOCC1)[C@H](O)c1ccccc1.Cl` (racemic), the “Raw Signal” value [4] is reported as 58472 and the Z-score [5] is reported as 0.4756.

`CC(=O)N[C@@H](CS)C(=O)O` [N-Acetyl-L-Cysteine] was tested, and the “Raw Signal” value [4] was 65323 and the Z-score [5] was 1.305.

In the case of `CC1CNCCN1S(=O)(=O)c1cccc2cnccc12.Cl.Cl` (stereo not drawn), the “Raw Signal” value [6] is reported as 52932 and the Z-score [7] is reported as -0.2456.

With `C=C1C(=O)O[C@H]2[C@H]1CC/C(C)=C/CC[C@@]1(C)O[C@@H]21` [Parthenolide] the “Raw Signal” value [4] was 56472 and the Z-score [5] was 0.3492.

With `COc1ccc2[nH]cc(CCN(C)C)c2c1.O=C(O)C(=O)O` [5-Methoxy DMT oxalate] the “Raw Signal” value [4] was 59658 and the Z-score [5] was 0.8846.

For `Cn1cnc2c(NC3CCCC3)ncnc21` [N6-Cyclopentyl-9-methyladenine], the “Raw Signal” value [6] was 52967 and the Z-score [7] was -0.2397.

For `CNCCCC12CCC(c3ccccc31)c1ccccc12` [Maprotiline hydrochloride], the “Raw Signal” value [6] was 54786 and the Z-score [8] was 0.06595.

For `CN(C)c1ccc(O)c2c1C[C@H]1C[C@H]3[C@H](N(C)C)C(O)=C(C(N)=O)C(=O)[C@@]3(O)C(O)=C1C2=O` [Minocycline hydrochloride], the “Raw Signal” value [6] was 55658 and the Z-score [8] was 0.2125.

`CC(C)C(=O)Nc1ccc([N+](=O)[O-])c(C(F)(F)F)c1` [Flutamide] was tested, and the “Raw Signal” value [1] was 64684 and the Z-score [3] was 1.9328.

For `c1ccc2c(c1)[I+]c1ccccc1-2` [Diphenyleneiodonium chloride], the “Raw Signal” value [4] was 59663 and the Z-score [5] was 0.9131.

In the case of `O=C(O)CC[N+](=O)[O-]` [3-Nitropropionic acid], the “Raw Signal” value [6] is reported as 53138 and the Z-score [7] is reported as -0.211.

`CCc1c(C(=O)OC)ncc2[nH]c3cc(OC)c(OC)cc3c12` was tested, and the “Raw Signal” value [4] was 57006 and the Z-score [5] was 0.3735.

With `Clc1ccccc1C(c1ccccc1)(c1ccccc1)n1ccnc1` [Clotrimazole] the “Raw Signal” value [4] was 61041 and the Z-score [5] was 0.5509.

For `CN[C@H](CC(C)C)C(=O)N[C@H]1C(=O)N[C@@H](CC(N)=O)C(=O)N[C@H]2C(=O)N[C@H]3C(=O)N[C@H](C(=O)N[C@H](C(=O)O)c4cc(O)cc(O)c4-c4cc3ccc4O)[C@H](O)c3ccc(c(Cl)c3)Oc3cc2cc(c3O[C@@H]2O[C@H](CO)[C@@H](O)[C@H](O)[C@H]2O[C@H]2C[C@](C)(N)[C@H](O)[C@H](C)O2)Oc2ccc(cc2Cl)[C@H]1O.Cl`, the “Raw Signal” value [4] was 61643 and the Z-score [5] was 1.0917.

In the case of `Br.Br.NC(N)=NCCSSCCN=C(N)N` [Guanidinoethyl disulfide dihydrobromide], the “Raw Signal” value [4] is reported as 61778 and the Z-score [5] is reported as 1.343.

`CS(=O)(=O)Nc1ccc([N+](=O)[O-])cc1Oc1ccccc1` [Nimesulide] was tested, and the “Raw Signal” value [6] was 51877 and the Z-score [7] was -0.4228.

`C=CCn1c(=O)c2c(nc(-c3ccc(S(=O)(=O)O)cc3)n2C)n(C)c1=O` was tested, and the “Raw Signal” value [4] was 65523 and the Z-score [5] was 1.34.

In the case of `Nc1ccc(S(=O)(=O)Nc2ccnn2-c2ccccc2)cc1` [Sulfaphenazole], the “Raw Signal” value [6] is reported as 54328 and the Z-score [7] is reported as -0.3295.

With `Cl.Cl.Fc1ccc(C(OCCN2CCN(CCCc3ccccc3)CC2)c2ccc(F)cc2)cc1` [GBR-12909 dihydrochloride] the “Raw Signal” value [4] was 60047 and the Z-score [5] was 0.9911.

With `CN(CCOc1ccc(C[C@H](Nc2ccccc2C(=O)c2ccccc2)C(=O)O)cc1)c1ccccn1` [GW1929] the “Raw Signal” value [6] was 55887 and the Z-score [8] was 0.1462.

With `CC(C)(C)c1cc(/C=C(\C#N)C(N)=S)cc(C(C)(C)C)c1O` [Tyrphostin AG 879] the “Raw Signal” value [6] was 56085 and the Z-score [8] was 0.01189.

With `CO/N=C(\C(=O)N[C@@H]1C(=O)N2C(C(=O)O)=C(COC(C)=O)CS[C@H]12)c1csc(N)n1` [Cefotaxime sodium] the “Raw Signal” value [1] was 53540 and the Z-score [2] was -0.7702.

In the case of `C=C(C)[C@H]1CC=C(C(=O)O)CC1` [(-)-Perillic acid], the “Raw Signal” value [4] is reported as 58838 and the Z-score [5] is reported as 0.5467.

With `Br.C=CCN1CCc2c(cc(O)c(O)c2Br)[C@@H](c2ccccc2)C1` [R(+)-6-Bromo-APB hydrobromide] the “Raw Signal” value [6] was 58651 and the Z-score [8] was 0.13.

For `Cl.NC1C=CC=C(C(=O)O)C1` (stereo not drawn) [Gabaculine hydrochloride], the “Raw Signal” value [4] was 64092 and the Z-score [5] was 1.088.

`CC1Cc2cc3c(cc2C(c2ccc(N)cc2)=NN1)OCO3` (stereo not drawn) [GYKI 52895] was tested, and the “Raw Signal” value [1] was 63898 and the Z-score [3] was 1.773.

With `Cl.Cl.Cl.Ic1ccc(N2CCN(Cc3c[nH]c4ncccc34)CC2)cc1` [L-750,667 trihydrochloride] the “Raw Signal” value [4] was 61468 and the Z-score [5] was 1.1887.

With `CNCCCC1c2ccccc2C=Cc2ccccc21` [Protriptyline hydrochloride] the “Raw Signal” value [6] was 55179 and the Z-score [7] was -0.1641.

In the case of `COc1cccc(OC)c1OCCNCC1COc2ccccc2O1.Cl` (stereo not drawn) [WB-4101 hydrochloride], the “Raw Signal” value [4] is reported as 58268 and the Z-score [5] is reported as 0.6298.

With `CC[C@@H](CO)NC(=O)[C@@H]1C=C2c3cccc4c3c(cn4C)C[C@H]2N(C)C1` [Methysergide maleate] the “Raw Signal” value [6] was 55881 and the Z-score [8] was 0.2499.

`O=C1CN(/N=C/c2ccc(-c3ccc([N+](=O)[O-])cc3)o2)C(O)=N1` [Dantrolene sodium] was tested, and the “Raw Signal” value [1] was 49715 and the Z-score [2] was -1.107.

For `C[C@@H]1O[C@H](C[N+](C)(C)C)C[C@H]1O.[Cl-]` (racemic) [(±)-Muscarine chloride], the “Raw Signal” value [6] was 54548 and the Z-score [8] was 0.02596.

In the case of `CC(C)CC(NC(=O)C1OC1C(=O)O)C(=O)NCCCCNC(=N)N` (stereo not drawn) [E-64], the “Raw Signal” value [4] is reported as 60196 and the Z-score [5] is reported as 1.021.
